Read-outs that look alike come from different tables or passages of the source.
Legend:
[1] = tested on: recombinant and non-replicative HIV virus; assay: Inhibitory effect on HIV infection to MAGI-CCR5 cells (luciferase reporter virus); format: cell-based
Protocol: The inhibitory activity of the compounds of the invention on HIV infection is measured on the human MAGI R5 recombinant cell line coexpressing the human CCR5 receptor and CD4 at their extracellular membrane. MAGI R5 cells are plated in black view plates at 10,000 cells/well and incubated with the appropriate concentrations of the compounds of the invention during 1 hour. This is followed by a 24 hours infection period with the recombinant and non-replicative HIV virus coding for the firefly luciferase (Bona et al., 2006, Antimicrob. Agents Chemother. 50: 3407-3417). The inhibitory effect of the tested compound on virus entry in MAGI R5 cells is measured by a reduction of luciferase signal (TopCount-NXT reader (Packard) and detection luciferase kit: steadylite HTS assay kit (Perkin Elmer)) in the presence of the compound of the invention relative to the maximum signal obtained from cells infected with the virus without any added compound. The results of the tested compounds are reported as the concentration of compound required to inhibit 50% (IC50) of the maximum luciferase signal.

[2] = molecular target: T1, CCR5 receptor (Homo sapiens, UniProt P51681); assay: Aequorin-based calcium flux assay, antagonist mode (against reference agonist MIP-1β); format: cell-based; parameters: expressed in transfected cells; host or cells: Chinese hamster ovary (CHO) cells coexpressing apoaequorin and Gα16; details: CHO cells expressing CCR5, vs reference agonist MIP-1β; for IC50: read-out: Aequorin/Ca++ Antagonist assay IC50; as to all read-outs here: key: Inactive means >30000 nm
T1 sequence (P51681 whole entry): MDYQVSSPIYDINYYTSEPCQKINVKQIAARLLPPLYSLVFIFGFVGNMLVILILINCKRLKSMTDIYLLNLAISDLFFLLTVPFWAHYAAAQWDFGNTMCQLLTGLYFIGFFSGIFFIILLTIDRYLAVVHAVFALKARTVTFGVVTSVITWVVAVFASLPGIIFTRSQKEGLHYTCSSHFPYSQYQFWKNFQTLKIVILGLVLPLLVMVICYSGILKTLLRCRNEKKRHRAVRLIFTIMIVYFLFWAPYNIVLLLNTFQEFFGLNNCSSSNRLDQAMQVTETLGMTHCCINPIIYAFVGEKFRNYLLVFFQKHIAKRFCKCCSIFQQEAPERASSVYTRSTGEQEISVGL
Protocol: (§1) Briefly, Chinese hamster ovary cells expressing the CCR5 receptor are transfected to coexpress apoaequorin and Gα16. Cells are incubated with 5 μM Coelenterazine H (Promega) overnight at room temperature, and resuspended at a concentration of 0.1×10^6 cells/ml. Cells are then mixed with test agonist or antagonist compounds and light emission by the aequorin is recorded with a luminometer (FDSS 6000-Hamamatsu) for 30 sec. Results are expressed as Relative Light Units (RLU). Controls include cells not expressing CCR5 in order to exclude possible non-specific effects of the test compound.
An antagonist response is defined as a decrease of light emission by aequorin of 10% or more in a sample of cells expressing CCR5 stimulated by a reference agonist ligand MIP-1β and treated with the compound of the invention, relative to a sample of cells expressing CCR5 but only treated with the reference agonist ligand MIP-1β.

[3] = molecular target: T1, CCR5 receptor; assay: Aequorin-based calcium flux assay, agonist mode; format: cell-based; parameters: expressed in transfected cells; host or cells: Chinese hamster ovary (CHO) cells coexpressing apoaequorin and Gα16
Protocol: as §1
An agonist response is defined as an increase of light emission by aequorin corresponding to 10% or more of the light emitted by a reference sample of cells expressing CCR5 and treated with a the reference agonist ligand MIP-1β.

[4] = molecular target: T1, CCR5 receptor; assay: 125I-MIP-1β binding competition assay; parameters: expressed in transfected cells; host or cells: membranes of recombinant Chinese hamster ovary (CHO) cells; details: membranes of CHO cells expressing human CCR5; 0.05 nM 125I-MIP-1β
Protocol: The ability of the compounds of the invention to inhibit the binding of MIP-1β was assessed by an in vitro radioligand binding assay. Membranes were prepared from Chinese hamster ovary recombinant cells which express the human CCR5 receptor. The membranes were incubated with 0.05 nM ^125I-MIP-1β in a HEPES 25 mM/CaCl2 5 mM/MgCl2 1 mM buffer and various concentrations of the compounds of the invention. The amount of iodinated MIP-1β bound to the receptor was determined after filtration by the quantification of membrane associated radioactivity using the TopCount-NXT reader (Packard). Competition curves were obtained for compounds of the invention and the concentration of compound which displaced 50% of bound radioligand (IC50) was calculated

[5] = Human immunodeficiency virus 1, MAGI, read-out: IC50 (HIV infection of MAGI R5 cells), range over the listed compounds
[6] = Human immunodeficiency virus 1, MAGI-CCR5, 24 h, read-out: HIV-Infection assay IC50
[7] = CHO cells expressing CCR5, apoaequorin and Gα16, read-out: Aequorin/Ca++ assay EC50
[8] = CHO cells expressing CCR5, agonistic mode of action, read-out: Aequorin/Ca++ Agonist assay EC50
[9] = CHO cells expressing CCR5, agonistic mode of action

In the case of `O=C(Cc1ccc(Cl)cc1)NC1CCN(CCC(c2ccccc2)c2ccccc2)CC1` [Compound 1], the IC50 [1, 5] is reported as 25.6 to 2500 nM, the IC50 [1, 6] is reported as 333 nM and the “Aequorin/Ca++ Antagonist assay IC50” value [2] is reported as “Inactive”. For the same compound, the EC50 [3, 7] was 58.8 nM and the IC50 [4] was 9.32 nM.

`N#Cc1ccc(CC(=O)NC2CCN(CCC(c3ccccc3)c3ccccc3)CC2)cc1` [Compound 24] showed an IC50 [1, 5] of 25.6 to 2500 nM, an IC50 [1, 6] of 384 nM and an EC50 [3, 7] of 104 nM. The IC50 [4] was 3.25 nM.

`C[C@H](CN(c1ccccc1)S(=O)(=O)Cc1ccccc1)N1CCC(NC(=O)Cc2ccc(C#N)cc2)CC1` [Compound 93] showed an IC50 [1, 6] of 1.9 nM, an EC50 [3, 7] of 50.8 nM and an IC50 [4] of 0.5 nM.

`COc1ccc(CC(=O)NC2CCN(CCC(c3ccccc3)c3ccccc3)CC2)cc1` [Compound 3] gave an IC50 [1, 5] of 25.6 to 2500 nM, an IC50 [1, 6] of 871 nM and an EC50 [3, 7] of 27.9 nM. The IC50 [4] was 14.8 nM.

Work on `O=C(Cc1ccccc1)NC1CCN(CCC(c2ccccc2)c2ccccc2)CC1` [Compound 7] yielded an IC50 [1, 5] of 25.6 to 2500 nM, an IC50 [1, 6] of 1420 nM and an EC50 [3, 7] of 43.2 nM. It also gave an IC50 [4] of 26.7 nM.

In the case of `C[C@H](CN(c1cccc(F)c1)S(=O)(=O)Cc1ccccc1)N1CCC(NC(=O)Cc2ccc(C(F)(F)F)cc2)CC1` [Compound 90], the IC50 [1, 6] is reported as 5.3 nM, the EC50 [3, 7] is reported as 180 nM and the IC50 [4] is reported as 0.7 nM.

Compound `C[C@H](CN(c1cccc(F)c1)S(=O)(=O)Cc1ccccc1)N1CCC(NC(=O)Cc2ccc(F)cc2)CC1` [Compound 97] has an IC50 [1, 6] of 3 nM, an EC50 [3, 7] of 94.4 nM and an IC50 [4] of 0.2 nM.

For `O=C(Cc1ccc(OC(F)(F)F)cc1)NC1CCN(CCC(c2ccccc2)c2ccccc2)CC1` [Compound 5], the IC50 [1, 5] was 25.6 to 2500 nM, the IC50 [1, 6] was 425 nM and the EC50 [3, 7] was 145 nM. For the same compound, the IC50 [4] was 23.4 nM.

With `CC(CC(c1ccccc1)c1ccccc1)N1CCC(NC(=O)Cc2ccc(C#N)cc2)CC1` (centres unmarked) [Compound 65] the IC50 [1, 5] was 25.6 to 2500 nM, the IC50 [1, 6] was 71.7 nM and the EC50 [3, 7] was 117 nM. It also gave an IC50 [4] of 0.64 nM.

In the case of `O=C(CN1Cc2ccccc2C1=O)NC1CCN(CCC(c2ccccc2)c2ccccc2)CC1` [Compound 31], the “Aequorin/Ca++ Antagonist assay IC50” value [2] is reported as “Inactive” and the EC50 [3, 8] is reported as 470 nM.

With `C[C@H](CN(c1cccc(F)c1)S(=O)(=O)Cc1ccccc1)N1CCC(NC(=O)Cc2ccccc2F)CC1` [Compound 80] the IC50 [1, 6] was 27 nM, the EC50 [3, 7] was 31.3 nM and the IC50 [4] was 0.8 nM.

With `CN(C(=O)CN1Cc2ccccc2C1=O)C1CCN(CCC(c2ccccc2)c2ccccc2)CC1` [Compound 63] the IC50 [2] was 1430 nM and the “Aequorin/Ca++ Agonist assay EC50” value [3, 9] was “Inactive”.

`C[C@H](CN(c1ccccc1)S(=O)(=O)Cc1ccccc1)N1CCC(NC(=O)Cc2ccc(F)cc2F)CC1` [Compound 113] gave an IC50 [1, 6] of 4.6 nM and an EC50 [3, 7] of 29.4 nM.

With `CN(C(=O)C(c1ccccc1)N1Cc2ccccc2C1=O)C1CCN(CCC(c2ccccc2)c2ccccc2)CC1` (centres unmarked) [Compound 62] the IC50 [2] was 1230 nM and the “Aequorin/Ca++ Agonist assay EC50” value [3, 9] was “Inactive”.

`O=C(Cc1c[nH]c2ccccc12)NC1CCN(CCC(c2ccccc2)c2ccccc2)CC1` [Compound 25] gave an IC50 [1, 5] of 25.6 to 2500 nM, an IC50 [1, 6] of 1130 nM and an EC50 [3, 7] of 90.8 nM. For the same compound, the IC50 [4] was 67.5 nM.

`O=C(CC1CCCCC1)NC1CCN(CCC(c2ccccc2)c2ccccc2)CC1` [Compound 28] showed an IC50 [1, 6] of 2540 nM, an EC50 [3, 7] of 620 nM and an IC50 [4] of 158 nM.

`C[C@H](CN(c1cccc(F)c1)S(=O)(=O)Cc1ccccc1)N1CCC(NC(=O)Cc2ccc(F)cc2F)CC1` [Compound 81] was tested, and the IC50 [1, 6] was 14.6 nM, the EC50 [3, 7] was 38.1 nM and the IC50 [4] was 0.2 nM.

`CS(=O)(=O)c1ccc(CC(=O)NC2CCN(CCC(c3ccccc3)c3ccccc3)CC2)cc1` [Compound 2] showed an IC50 [1, 5] of 25.6 to 2500 nM, an IC50 [1, 6] of 345 nM and an EC50 [3, 7] of 33.2 nM. The IC50 [4] was 6.61 nM.

For `CC(CC(c1ccccc1)c1ccccc1)N1CCC(NC(=O)Cc2ccc(S(C)(=O)=O)cc2)CC1` (centres unmarked) [Compound 64], the IC50 [1, 5] was 25.6 to 2500 nM, the IC50 [1, 6] was 25.6 nM and the EC50 [3, 7] was 83.4 nM. For the same compound, the IC50 [4] was 0.14 nM.

In the case of `O=C(NC1CCN(CCC(c2ccccc2)c2ccccc2)CC1)C(c1ccccc1)N1Cc2ccccc2C1=O` (centres unmarked) [Compound 37], the “Aequorin/Ca++ Antagonist assay IC50” value [2] is reported as “Inactive” and the EC50 [3, 8] is reported as 4250 nM.

— US20090054451A1, “Use of Piperidine Derivatives as Agonists of Chemokine Receptor Activity” (Euroscreen S.A., priority 2007, published 2009)
